# Activity calls are given as the source filed them.
# Columns and labels:
# Coagulation factor XII = molecular target: T1, Coagulation factor XII (Homo sapiens, UniProt P00748); type: functional;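 note: activated factor XIIa alpha cleaving a fluorogenic AMC peptide substrate; inhibitor potency from loss of enzyme activity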
# T1 sequence (P00748 whole entry): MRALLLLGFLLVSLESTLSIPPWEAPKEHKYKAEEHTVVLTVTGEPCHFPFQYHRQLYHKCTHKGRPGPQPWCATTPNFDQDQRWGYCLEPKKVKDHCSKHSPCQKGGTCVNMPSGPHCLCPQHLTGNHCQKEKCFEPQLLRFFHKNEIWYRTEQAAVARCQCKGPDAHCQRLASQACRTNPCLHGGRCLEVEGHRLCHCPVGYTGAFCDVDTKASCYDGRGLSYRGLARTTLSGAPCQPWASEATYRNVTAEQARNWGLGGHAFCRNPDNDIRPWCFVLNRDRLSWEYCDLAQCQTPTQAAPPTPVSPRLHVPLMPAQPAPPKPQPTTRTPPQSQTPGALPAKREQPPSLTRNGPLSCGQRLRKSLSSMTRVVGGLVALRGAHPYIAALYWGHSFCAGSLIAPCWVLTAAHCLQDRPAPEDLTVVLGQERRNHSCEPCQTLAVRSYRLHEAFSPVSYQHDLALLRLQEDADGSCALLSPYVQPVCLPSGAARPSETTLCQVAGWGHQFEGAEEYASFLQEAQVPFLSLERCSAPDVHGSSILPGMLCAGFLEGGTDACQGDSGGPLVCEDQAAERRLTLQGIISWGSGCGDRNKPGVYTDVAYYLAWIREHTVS
# [1] = molecular target: T2, Type-1 angiotensin II receptor (Homo sapiens, UniProt P30556); test: antagonism of angiotensin II type 1 receptor – cell-based, uHTS hits, selectivity assay for APJ receptor antagonist project, dose response (AID 463214); type: functional;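 note: antagonist potency against angiotensin II stimulated AT1 response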
# T2 sequence (P30556 whole entry): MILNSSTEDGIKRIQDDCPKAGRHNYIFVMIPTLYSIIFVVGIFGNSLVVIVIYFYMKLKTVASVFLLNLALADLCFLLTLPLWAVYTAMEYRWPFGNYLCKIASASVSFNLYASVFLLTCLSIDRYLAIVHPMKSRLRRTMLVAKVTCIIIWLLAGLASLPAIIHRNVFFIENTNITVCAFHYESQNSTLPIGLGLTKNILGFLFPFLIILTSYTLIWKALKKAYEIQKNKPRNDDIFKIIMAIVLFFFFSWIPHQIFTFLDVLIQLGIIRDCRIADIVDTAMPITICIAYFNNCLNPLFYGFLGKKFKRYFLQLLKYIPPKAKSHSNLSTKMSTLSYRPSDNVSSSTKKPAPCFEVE
# Beta-galactosidase = Beta-galactosidase (Escherichia coli, UniProt Q8VNN2); test: PubChem AID 485352; type: functional
# Chain of Beta-galactosidase (Q8VNN2 whole entry): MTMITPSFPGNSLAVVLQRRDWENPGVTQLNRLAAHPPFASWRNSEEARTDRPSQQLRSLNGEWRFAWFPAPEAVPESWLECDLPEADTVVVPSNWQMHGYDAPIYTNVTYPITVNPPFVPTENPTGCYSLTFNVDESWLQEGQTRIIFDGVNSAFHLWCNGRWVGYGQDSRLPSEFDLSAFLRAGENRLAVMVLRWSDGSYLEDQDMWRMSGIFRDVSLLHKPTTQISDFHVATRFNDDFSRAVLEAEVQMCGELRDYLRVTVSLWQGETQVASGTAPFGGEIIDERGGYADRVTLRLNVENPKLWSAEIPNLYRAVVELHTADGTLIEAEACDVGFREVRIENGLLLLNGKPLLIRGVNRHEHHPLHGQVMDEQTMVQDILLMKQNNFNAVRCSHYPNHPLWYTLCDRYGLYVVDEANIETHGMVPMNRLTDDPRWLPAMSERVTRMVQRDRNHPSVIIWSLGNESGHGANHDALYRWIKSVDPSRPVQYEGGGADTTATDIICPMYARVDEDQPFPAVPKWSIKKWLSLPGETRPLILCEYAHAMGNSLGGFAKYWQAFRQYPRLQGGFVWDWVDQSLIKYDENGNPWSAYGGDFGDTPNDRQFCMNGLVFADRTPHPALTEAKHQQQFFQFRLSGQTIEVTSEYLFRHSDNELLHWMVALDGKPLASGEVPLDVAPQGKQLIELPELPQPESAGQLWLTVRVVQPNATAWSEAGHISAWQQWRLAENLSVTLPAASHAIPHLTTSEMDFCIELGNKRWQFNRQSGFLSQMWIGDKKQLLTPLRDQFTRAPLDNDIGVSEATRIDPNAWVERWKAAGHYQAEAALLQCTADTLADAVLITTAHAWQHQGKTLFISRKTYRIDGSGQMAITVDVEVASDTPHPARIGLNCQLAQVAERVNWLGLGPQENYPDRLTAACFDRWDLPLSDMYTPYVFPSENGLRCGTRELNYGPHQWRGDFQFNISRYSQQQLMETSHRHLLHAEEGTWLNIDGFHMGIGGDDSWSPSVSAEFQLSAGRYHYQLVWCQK
# Nonstructural protein 1 = Nonstructural protein 1 (Influenza A virus, UniProt Q194T2); type: functional, Influenza A virus (A/California/07/2009(H1N1))
# Chain of Nonstructural protein 1 (Q194T2 whole entry): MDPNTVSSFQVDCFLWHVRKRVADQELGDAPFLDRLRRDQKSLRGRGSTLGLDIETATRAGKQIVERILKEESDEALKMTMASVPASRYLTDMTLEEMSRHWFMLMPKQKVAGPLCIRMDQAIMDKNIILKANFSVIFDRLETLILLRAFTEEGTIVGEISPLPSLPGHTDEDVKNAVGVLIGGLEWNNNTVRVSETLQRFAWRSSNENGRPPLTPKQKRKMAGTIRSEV
# [2] = NIH-3T3 fibroblast cytotoxicity, dose response, cytotoxicity control, cell-based, fluorescence, Alamar Blue, secondary assay (AID 2327); type: functional;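 note: NIH-3T3 mouse fibroblasts cultured with fluconazole at 8 µg/mL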
# Leucine aminopeptidase = molecular target: T3, Leucine aminopeptidase (Plasmodium falciparum 3D7, UniProt Q8IL11); test: P. falciparum M17LAP inhibitors, primary screen, biochemical, fluorogenic H-Leu-NHMec substrate, 1536-well (AID 1619); type: functional
# T3 sequence (Q8IL11 whole entry): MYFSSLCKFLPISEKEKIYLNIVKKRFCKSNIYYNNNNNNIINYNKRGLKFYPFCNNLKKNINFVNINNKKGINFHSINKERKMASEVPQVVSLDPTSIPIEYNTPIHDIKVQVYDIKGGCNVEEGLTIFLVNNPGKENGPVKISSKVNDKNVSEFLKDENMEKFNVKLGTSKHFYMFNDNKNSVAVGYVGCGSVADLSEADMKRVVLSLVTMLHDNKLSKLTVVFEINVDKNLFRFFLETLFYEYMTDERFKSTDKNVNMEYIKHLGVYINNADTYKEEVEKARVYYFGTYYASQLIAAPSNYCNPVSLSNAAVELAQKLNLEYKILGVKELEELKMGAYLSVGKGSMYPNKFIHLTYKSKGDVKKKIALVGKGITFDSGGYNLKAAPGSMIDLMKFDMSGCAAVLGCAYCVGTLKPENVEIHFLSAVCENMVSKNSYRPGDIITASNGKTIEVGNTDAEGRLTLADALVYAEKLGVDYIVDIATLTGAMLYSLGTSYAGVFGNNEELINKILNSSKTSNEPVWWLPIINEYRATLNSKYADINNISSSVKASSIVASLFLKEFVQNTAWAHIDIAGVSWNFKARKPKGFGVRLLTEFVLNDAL
# [3] = luciferase reporter signal suppression in cells – H4 neuroglioma cells, luminescence, dose response (AID 1990); type: functional, cell-based
# H9c2 = test: cells; type: functional, cell-based; conditions: Rattus norvegicus, H9c2, Myocardium;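 note: confirmatory concentration-response retest of ultra-high-throughput screening hits for modulation of myocardial damage; cell death induced by hydrogen peroxide oxidative stress; compound pretreatment for 60 min then peroxide exposure for 2 h; potency is for protecting the cells against peroxide damage rather than for killing them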
# [4] = alpha-synuclein stem-loop luciferase translation blockers – H4 neuroglioma cells, luminescence, confirmation (AID 1988); type: functional, cell-based
# [5] = Luminescence Cell-Based Dose Response HTS to Identify Inhibitors of 5'UTR Stem-Loop Driven Prion Protein mRNA Translation in H4 Neuroglioblastoma Cells. [Related pubchem assays: 1827 (Project Summary), 1813 (Primary HTS)]; type: functional
# [6] = Luminescence Cell-Based Dose Response HTS to Identify Activators of Luciferase Translation or Activity in H4 […] Cells. [Related pubchem assays: 1829 (Project Summary), 1814 (Primary HTS)]; type: functional
# H4 = test: Luminescence Cell-Based Dose Response HTS to Identify Activators of 5'UTR Stem-Loop Driven Prion Protein mRNA Translation in H4 Neuroglioblastoma Cells. [Related pubchem assays: 1829 (Project Summary), 1814 (Primary HTS)]; type: functional; conditions: Homo sapiens
# [7] = Luminescence Cell-Based Dose Confirmation HTS to Identify Activators of 5'UTR Stem-Loop Driven Alpha-Synuclein mRNA Translation in H4 Neuroglioblastoma Cells. [Related pubchem assays: 1829 (Project Summary), 1814 (Primary HTS)]; type: functional
# [8] = tested on: Streptococcus sp. 'group A'; test: Streptococcus pyogenes SK(-)GAS viability under kanamycin – luminescence, BacTiterGlo, confirmation, counter-screen for streptokinase expression inhibitor project, dose response (AID 1900); type: functional, organism-based
# Streptococcus = test: GAS UMAA2166 growth inhibition – luminescence, BacTiterGlo, counter-screen for streptokinase expression inhibitor project, dose response (AID 1915); type: functional, organism-based;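 note: potency for reduction of bacterial viability or growth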
# Fatty acid synthase [9] = molecular target: T4, Fatty acid synthase (Homo sapiens, UniProt P49327); test: inhibition of human FAS-TE enzyme activity – biochemical, endpoint fluorescence intensity, uHTS hits, dose response (AID 624327); type: functional;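 note: fluorescence from hydrolysis of an O-methyl fluorescein acyl ester substrate by the enzyme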
# T4 sequence (P49327 whole entry): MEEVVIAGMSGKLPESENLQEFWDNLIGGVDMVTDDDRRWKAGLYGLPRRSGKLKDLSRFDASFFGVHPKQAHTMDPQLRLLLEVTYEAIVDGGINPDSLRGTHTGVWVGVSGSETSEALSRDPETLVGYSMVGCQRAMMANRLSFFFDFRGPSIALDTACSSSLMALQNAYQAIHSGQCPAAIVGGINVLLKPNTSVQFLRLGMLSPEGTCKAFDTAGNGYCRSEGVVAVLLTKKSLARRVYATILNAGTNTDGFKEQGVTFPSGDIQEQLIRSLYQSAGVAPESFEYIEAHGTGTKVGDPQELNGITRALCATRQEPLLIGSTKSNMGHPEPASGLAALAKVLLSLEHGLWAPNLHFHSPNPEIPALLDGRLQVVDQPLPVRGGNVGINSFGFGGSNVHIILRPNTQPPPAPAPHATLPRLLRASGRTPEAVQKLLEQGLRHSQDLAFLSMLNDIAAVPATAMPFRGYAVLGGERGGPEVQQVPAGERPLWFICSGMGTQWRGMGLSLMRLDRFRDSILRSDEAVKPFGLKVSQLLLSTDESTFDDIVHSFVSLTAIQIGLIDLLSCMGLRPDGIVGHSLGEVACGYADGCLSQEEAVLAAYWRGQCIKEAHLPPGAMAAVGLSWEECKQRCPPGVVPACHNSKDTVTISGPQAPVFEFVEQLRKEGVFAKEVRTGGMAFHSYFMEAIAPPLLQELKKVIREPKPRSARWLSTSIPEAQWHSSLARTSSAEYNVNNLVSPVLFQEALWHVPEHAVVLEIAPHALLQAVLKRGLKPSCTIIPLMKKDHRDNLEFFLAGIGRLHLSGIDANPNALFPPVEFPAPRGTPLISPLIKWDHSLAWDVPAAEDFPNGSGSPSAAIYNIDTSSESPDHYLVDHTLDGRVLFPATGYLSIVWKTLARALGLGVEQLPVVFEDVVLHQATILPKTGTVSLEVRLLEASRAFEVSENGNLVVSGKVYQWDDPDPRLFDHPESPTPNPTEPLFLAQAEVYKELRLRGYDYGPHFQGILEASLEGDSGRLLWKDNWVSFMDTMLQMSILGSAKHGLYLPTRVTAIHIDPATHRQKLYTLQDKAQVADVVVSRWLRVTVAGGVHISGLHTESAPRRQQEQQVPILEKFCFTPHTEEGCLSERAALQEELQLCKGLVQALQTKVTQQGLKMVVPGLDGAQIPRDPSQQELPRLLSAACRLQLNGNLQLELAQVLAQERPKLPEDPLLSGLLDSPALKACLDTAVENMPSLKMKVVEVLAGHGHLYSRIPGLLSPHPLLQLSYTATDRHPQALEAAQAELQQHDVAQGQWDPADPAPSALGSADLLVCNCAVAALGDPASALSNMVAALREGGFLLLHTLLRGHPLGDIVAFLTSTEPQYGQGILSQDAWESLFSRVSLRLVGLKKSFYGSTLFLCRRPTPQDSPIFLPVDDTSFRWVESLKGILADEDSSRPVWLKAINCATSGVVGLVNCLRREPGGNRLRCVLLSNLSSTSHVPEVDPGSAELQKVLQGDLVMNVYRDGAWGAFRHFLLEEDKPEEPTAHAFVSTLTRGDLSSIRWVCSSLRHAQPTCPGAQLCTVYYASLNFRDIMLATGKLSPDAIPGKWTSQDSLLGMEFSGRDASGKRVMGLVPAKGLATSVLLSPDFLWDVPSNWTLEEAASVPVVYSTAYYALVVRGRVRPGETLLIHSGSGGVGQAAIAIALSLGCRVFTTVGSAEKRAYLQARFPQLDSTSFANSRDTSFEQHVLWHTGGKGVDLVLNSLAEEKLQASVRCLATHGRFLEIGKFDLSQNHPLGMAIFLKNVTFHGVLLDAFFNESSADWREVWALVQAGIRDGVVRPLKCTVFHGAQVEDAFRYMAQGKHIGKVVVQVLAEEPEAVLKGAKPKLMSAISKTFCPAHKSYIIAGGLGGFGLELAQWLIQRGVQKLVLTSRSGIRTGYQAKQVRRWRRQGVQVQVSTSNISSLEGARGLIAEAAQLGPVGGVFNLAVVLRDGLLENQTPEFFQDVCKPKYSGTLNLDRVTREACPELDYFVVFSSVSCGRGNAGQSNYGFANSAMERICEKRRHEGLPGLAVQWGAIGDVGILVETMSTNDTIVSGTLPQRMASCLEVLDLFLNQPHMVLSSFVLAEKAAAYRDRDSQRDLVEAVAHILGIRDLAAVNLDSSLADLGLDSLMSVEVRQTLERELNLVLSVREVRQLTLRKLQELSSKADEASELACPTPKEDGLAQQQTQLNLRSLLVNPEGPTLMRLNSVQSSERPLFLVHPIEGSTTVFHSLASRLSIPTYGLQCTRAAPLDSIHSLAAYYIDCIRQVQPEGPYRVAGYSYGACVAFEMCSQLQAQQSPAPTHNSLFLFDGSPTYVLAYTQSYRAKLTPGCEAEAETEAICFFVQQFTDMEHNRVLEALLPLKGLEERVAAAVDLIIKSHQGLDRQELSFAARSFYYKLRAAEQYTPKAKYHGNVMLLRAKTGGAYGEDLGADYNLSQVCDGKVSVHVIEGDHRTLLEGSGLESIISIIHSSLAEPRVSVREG
# Fatty acid synthase [10] = molecular target: T4, Fatty acid synthase; test: inhibition of human FAS-TE enzyme activity – biochemical, kinetic fluorescence intensity, dose response (AID 624326); type: functional;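 note: rate of fluorescence rise from hydrolysis of a fluorogenic O-methyl fluorescein ester substrate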
# [11] = molecular target: T5, Heat shock factor protein 1 (Mus musculus, UniProt P38532); test: decrease of HSF1-responsive luciferase luminescence – cell-based, NIH3T3, dose retest, confirmation (AID 2382); type: functional;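 note: NIH3T3 fibroblasts with HSF1-driven luciferase reporter stressed by proteasome inhibitor MG132; luminescence from HSF1-driven luciferase expression after 8 hours of MG132 stress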
# T5 sequence (P38532 whole entry): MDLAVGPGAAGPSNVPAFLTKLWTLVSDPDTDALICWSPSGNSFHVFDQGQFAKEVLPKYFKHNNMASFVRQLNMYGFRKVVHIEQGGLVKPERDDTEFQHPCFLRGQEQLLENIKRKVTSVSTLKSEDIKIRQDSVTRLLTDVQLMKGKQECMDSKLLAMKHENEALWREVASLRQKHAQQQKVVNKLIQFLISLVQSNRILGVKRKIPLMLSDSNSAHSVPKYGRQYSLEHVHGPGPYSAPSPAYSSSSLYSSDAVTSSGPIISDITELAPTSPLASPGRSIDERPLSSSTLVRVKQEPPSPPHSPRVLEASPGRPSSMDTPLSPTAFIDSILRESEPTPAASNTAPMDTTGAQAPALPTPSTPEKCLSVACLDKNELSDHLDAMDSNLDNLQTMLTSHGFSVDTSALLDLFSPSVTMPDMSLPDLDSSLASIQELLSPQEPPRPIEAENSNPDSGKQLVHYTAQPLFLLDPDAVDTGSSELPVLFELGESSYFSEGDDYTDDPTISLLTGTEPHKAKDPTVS
# [12] = molecular target: T6, Ubiquitin-conjugating enzyme E2 N (Homo sapiens, UniProt P61088); type: functional;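 note: Dose-response confirmation in a TR-FRET assay detecting UBC13-driven polyubiquitin chain formation, inhibition measured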
# T6 sequence (P61088 whole entry): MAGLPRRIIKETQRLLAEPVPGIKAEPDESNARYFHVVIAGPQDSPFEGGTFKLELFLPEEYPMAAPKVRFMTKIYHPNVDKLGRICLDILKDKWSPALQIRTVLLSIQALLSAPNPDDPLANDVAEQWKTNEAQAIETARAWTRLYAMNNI
# [13] = THP-1 cell cytotoxicity, dose response, cytotoxicity control for non-replicating M. tuberculosis project (AID 489025); type: functional
# [14] = fluconazole-exposed Candida albicans growth modulators – fluorescence, retest, confirmation (AID 2467); type: functional, cell-based
# [15] = molecular target: T7, Calpain-2 catalytic subunit (Sus scrofa, UniProt P43367); test: m-calpain protease blockers, concentration series – biochemical, fluorogenic peptide substrate, dose response (AID 1420); type: functional
# T7 sequence (P43367 whole entry): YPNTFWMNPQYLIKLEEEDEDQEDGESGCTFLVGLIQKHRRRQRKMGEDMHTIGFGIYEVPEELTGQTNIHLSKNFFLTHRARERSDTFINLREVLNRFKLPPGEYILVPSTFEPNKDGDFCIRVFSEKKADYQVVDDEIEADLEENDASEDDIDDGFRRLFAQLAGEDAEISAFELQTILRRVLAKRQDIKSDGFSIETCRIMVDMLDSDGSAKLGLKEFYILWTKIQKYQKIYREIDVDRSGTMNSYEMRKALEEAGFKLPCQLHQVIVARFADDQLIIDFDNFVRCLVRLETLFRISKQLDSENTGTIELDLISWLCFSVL
smiles,measurement,setting,value
CCCc1nc2[nH]nc(N)c2c2c1CCC2,IC50,Coagulation factor XII,> 50 µM (inactive)
CCOC(=O)C1=NNC(C(=O)c2ccc(Cl)cc2)C1c1ccccc1 (stereo not drawn),IC50,[1],39.9 µM (not active)
same,EC50,Beta-galactosidase,> 40 µM (inactive)
c1cnc2c(c1)ccc1cccnc12,IC50,Nonstructural protein 1,1.03 µM (active)
same,EC50,[2],6.76 µM (inconclusive)
COc1ccc(O)c(/C=N/NC(=O)c2cc(O)nc3ccccc23)c1,IC50,Coagulation factor XII,> 50 µM (inactive)
CCN(CC)CC(=O)c1ccc(-c2ccccc2)cc1,IC50,[1],18.8 µM (active)
same,IC50,Leucine aminopeptidase,60.2 µM (active)
same,EC50,Beta-galactosidase,> 40 µM (inactive)
Cc1ncc(CO)c(/C=N/NC(=S)Nc2ccc(F)cc2)c1O,IC50,Nonstructural protein 1,2.84 µM (active)
O=C(NC(=S)Nc1ccc(S(=O)(=O)Nc2nccs2)cc1)c1ccccc1F,IC50,Coagulation factor XII,> 50 µM (inactive)
O=C(COC(=O)c1ccc(Br)o1)c1ccc(S(=O)(=O)N2CCCCC2)cc1,IC50,[1],23.2 µM (not active)
same,EC50,Beta-galactosidase,> 40 µM (inactive)
CC(C)Oc1cccc(C(=O)NC(=S)Nc2cccnc2)c1,IC50,[1],> 40 µM (not active)
same,EC50,Beta-galactosidase,> 40 µM (inactive)
COc1ccc(N2CCN(S(=O)(=O)c3ccc(C(=O)NC4CCCC4)cc3)CC2)cc1,IC50,Coagulation factor XII,> 50 µM (inactive)
O=C(CN1C(=O)C2C3C=CC(C3)C2C1=O)Nc1nc(-c2ccccn2)cs1 (stereo not drawn),EC50,[3],15.4 µM (active)
same,IC50,Nonstructural protein 1,10.5 µM (active)
same,IC50,H9c2,15.1 µM (active)
same,EC50,[4],12.2 µM (active)
same,EC50,[5],> 120 µM (not active)
Cn1ncc(Oc2ccc([N+](=O)[O-])cc2)c(Cl)c1=O,EC50,[6],25.9 µM (active)
same,EC50,H4,> 120 µM (not active)
same,EC50,[7],> 120 µM (not active)
same,IC50,Coagulation factor XII,> 50 µM (inactive)
COc1cccc(/C=N/n2c(N)c(S(=O)(=O)c3cccs3)c3nc4ccccc4nc32)c1OC,IC50,Coagulation factor XII,> 50 µM (inactive)
O=C(CCN1C(=O)C2C3CC(C(Br)C3Br)C2C1=O)OCC(=O)c1cccc([N+](=O)[O-])c1 (stereo not drawn),IC50,[1],28.4 µM (not active)
same,EC50,Beta-galactosidase,> 40 µM (inactive)
O=C(Cn1nc2ccccc2n1)N/N=C/c1cc([N+](=O)[O-])ccc1O,IC50,Nonstructural protein 1,5.08 µM (active)
same,EC50,[8],0.419 µM (active)
same,EC50,Streptococcus,0.55 µM (active)
same,IC50,Fatty acid synthase [9],3.76 µM (active)
same,IC50,Fatty acid synthase [10],5.14 µM (active)
same,EC50,[11],0.691 µM (active)
COc1ccc2sc(-c3ccccc3OC)c(C#Cc3cncn3C)c2c1,IC50,[12],> 20 µM (inactive)
O=C(NNC(=O)C12CC3CC(CC(C3)C1)C2)c1cnccn1,CC50,[13],39.8 µM (active)
same,EC50,[2],> 160 µM (inactive)
same,EC50,[14],> 38 µM (not active)
CCC(C)(C)NC(=O)C(c1ccc(C)o1)N(Cc1ccc2c(c1)OCO2)C(=O)c1snc(C(N)=O)c1N (stereo not drawn),IC50,[12],> 20 µM (inactive)
O=C(CSc1nnnn1-c1ccccc1)CSc1nnnn1-c1ccccc1,IC50,[15],7.04 µM (not active)
CC1CCN(CCNC(=O)c2ccc3c(=O)n(Cc4ccc(Cl)cc4)c(=S)[nH]c3c2)CC1,IC50,[12],> 20 µM (inactive)
CC1=C(C(=O)OCC2CCCO2)C(c2ccc(C)o2)C2=C(O)CC(c3ccc(N(C)C)cc3)CC2=N1 (stereo not drawn),IC50,[15],> 50 µM (not active)
O=C(OCc1nnc(-c2ccccc2)o1)c1ccc2c(c1)OCO2,IC50,[15],15.2 µM (not active)

# — ChEMBL document CHEMBL1201862, “PubChem BioAssay data set” (2004)
